Measured values taken from patent publication US20250302846A1, “ANTIBIOTIC COMPOSITION AND METHODS OF USE THEREOF” (THE REGENTS OF THE UNIVERSITY OF COLORADO A BODY CORPORATE, priority 2022, published 2025).
“And” between values parts separate entries of the source, which are not always exact repeats. Identical values can stand only once. Like-named read-outs stand apart in the source and are kept apart here.

How the values were obtained:
[1] = tested on: S. Typhimurium (SL1344); experiment: Minimum inhibitory concentration determination in broth; type: cell-based; conditions: for MIC50: Salmonella enterica, TYPHIMURIUM
Procedure: A, B) Dose response curves monitoring S. Typhimurium (SL1344) or E. coli (K12) growth from an OD600 of 0.01, normalized to growth in 2% DMSO under the indicated condition. Mean and SEM of at least three biological replicates performed with technical triplicates; curve fit: sigmoidal, 4P L. C-E) Checkerboard assays of S. Typhimurium SL1344 growth from an OD600 of 0.01 in LB for 18 hours with novobiocin (up to 100 μg/mL) and (C) PMB (up to 48 μM), (D) JDI (up to 150 μM), or (E) D66 (up to 150 μM). Growth was normalized to growth in 2% DMSO, with the darkest blue representing 100% growth and white representing 0%.
Minimum inhibitory concentration determination: Overnight LB-grown cultures were diluted in LB or MHB to an optical density (OD600) of 0.01 and distributed into polystyrene 96-well flat-bottom plates (Greiner, 655185). […] The final DMSO concentration was at or below 2%. Where indicated, PMB [0.5 μg/mL] was added prior to D66. Plates were grown at 37° C. with shaking and OD600 was monitored (BioTek Synergy H1 or BioTek Eon). MICs were defined as the concentration at which 95% of growth was inhibited (OD600).

[2] = Murine tolerability after a single dose; type: in vivo, C57BL/6 mice; conditions: mice
Procedure: Murine pharmacokinetic analyses and infections: Three female C57BL/6 mice were injected intraperitoneally (IP) with 50 mg/kg of D66 formulated in DMSO (50 μL). […] Three mice were initially dosed and observed for 24 hours to determine tolerability. […] Plasma D66 levels were measured using a liquid chromatography coupled to tandem mass spectrometry (LC/MS/MS) assay by the University of Colorado Cancer Center Drug Discovery and Development Shared Resource. The assay used monitored the transition of D66 (376 m/z->176 m/z) and was linear from 1-1000 ng/ml with an accuracy and precision of 90.3%+10.4% (% CV) based on quality control (QC) samples included with analyzed unknown samples.

[3] = tested on: S. Typhimurium strain SL1344; type: in vivo
Procedure: FIG. 5A-C. […] Mice were euthanized 48 hours after infection. […] Significance was determined by Mann-Whitney.
Female C57Bl/6 7-8-week-old mice were IP inoculated with S. Typhimurium strain SL1344. Six mice per cohort were IP-treated with 100 μL of vehicle (50% DMSO), 50 mg/kg of chloramphenicol, or 50 mg/kg of D66 at 10 minutes and 24 hours post-infection. Mice were euthanized at 48 hours by CO2 asphyxiation, followed by cervical dislocation. Spleen and liver were collected, homogenized in 1 mL PBS and serially diluted for plating to enumerate CFU. The experiment was performed twice independently with 7×10^3 CFU, 3×10^4 CFU respectively, as determined by plating. A ROUT test for outliers and a Mann-Whitney test for significance were performed in GraphPad Prism.

[4] = tested on: staphylococcal strains; experiment: MIC95 quoted for staphylococcal persister and biofilm experiments; type: cell-based; conditions: staphylococcal strains; read-out: MIC95
Procedure: A-D) Overnight cultures of the indicated strains were treated at time 0 with DMSO, ciprofloxacin [4 μg/mL], vancomycin [10 μg/mL], or the corresponding MIC95 concentration of D66 (1x MIC95=130 μM, 49 μg/mL). Cultures were plated for enumeration of CFU at time points indicated. Mean and SEM of three biological replicates. E) RAW 264.7 macrophage-like cells and HeLa cells were infected with S. aureus USA300, at MOIs of 0.5 and 2.5, respectively. Cells were treated two hours after infection with DMSO (gray circle on Y axis), or dilutions of D66 from 40 μM. After 8 hours of infection, cells were lysed and plated for enumeration of CFU. Mean and SEM of biological duplicates performed with technical triplicates each with six dilutions of D66. The IC50 value that was calculatable is indicated.
Biofilm formation was monitored after 18 hours in TSB with subinhibitory concentrations of DMSO, rifampin (1x MIC95=0.05 μg/mL), vancomycin (1x MIC95=1 μg/mL), or D66 (1x MIC95=130 μM). A-D) Crystal violet staining for accumulated biofilm mass measured at A595. Mean and […]

[5] = tested on: S. aureus FDA209; experiment: Growth curves and kill curves of mid-log phase S. aureus; type: cell-based
Procedure: FIG. 9A-B. D66 is bactericidal to mid-log phase S. aureus. A) Growth curves and B) kill-curves. Mid-log phase cultures of S. aureus FDA209 were treated at time 0 with either DMSO or the indicated concentration of D66 (1x MIC95=130 μM). Cultures were monitored for OD600 and plated for enumeration of colony forming units (CFU). Data are presented as fold change. Mean and SEM of three biological replicates performed with technical triplicates.

[6] = tested on: S. aureus FDA209; experiment: Laurdan generalized polarization membrane fluidity assay; type: cell-based; conditions: mid-log S. aureus FDA209
Procedure: Mid-log phase S. aureus FDA209 cells were used for all experiments. A) Membrane fluidity was evaluated with a Laurdan generalized polarization (GP) assay. Cells were exposed at time 0 to DMSO, benzyl alcohol (BnOH, a membrane fluidizer [50 mM]), or D66 (1x MIC95=130 μM). Mean and SEM of three biological replicates performed with technical triplicates. B) Membrane permeability was monitored by PI fluorescence. Cells were exposed at time 0 to DMSO, SDS [0.3%], or D66. Samples were processed at the timepoints shown. Mean and SEM of three biological replicates performed with technical triplicates. C) Intracellular pH was monitored with the fluorescent probe BCECF-AM. Cells were exposed at time 0 to DMSO, the protonophore CCCP [100 μM], or D66. Mean and SEM of three biological replicates performed with technical triplicates. D) Intracellular ATP levels measured using the Promega BacTiter-Glo kit after 30 minutes of treatment with DMSO, chloramphenicol (Chlor), or D66. Mean and SEM of three biological replicates performed with technical triplicates. E) Respiration rates of cells incubated with resazurin and treated at time 0 as indicated. Mean and […]

## O=C(Nc1cc(Cl)cc(Cl)c1)N1CCCN(Cc2ccccc2)CC1 [D66]
[1]; PMBN [20 μg/mL], MHB
  growth inhibition in the presence of polymyxin B nonapeptide (PMBN): did not enable D66 to inhibit growth
[1]; S. Typhimurium (SL1344) w/PMB (0.5 ug/mL), LB
  cMIC95 in LB: 54 µM
[1]; S. Typhimurium (SL1344) w/PMB (0.5 ug/mL), MHB
  cMIC95 in MHB: 46 µM
[1]; S. Typhimurium (SL1344), LB
  cMIC95 in LB: >150 µM
[1]; S. Typhimurium (SL1344), MHB
  cMIC95 in MHB: >150 µM
[1]; S. Typhimurium (SL1344) w/PMB (0.5 ug/mL), LB, read-out: MIC50 in LB
  MIC50: 45 µM and 17 µg/mL
[1]; S. Typhimurium (SL1344) w/PMB (0.5 ug/mL), MHB, read-out: MIC50 in MHB
  MIC50: 40 ± 1 µM
[1]; S. Typhimurium (SL1344), LB, read-out: MIC50 in LB
  MIC50: > 150 µM and > 57 µg/mL
[1]; S. Typhimurium (SL1344), MHB, read-out: MIC50 in MHB
  MIC50: > 150 µM
[2]; 50 mg/kg IP, observed for 24 hours
  observable toxicity and gross pathological lesions in liver, kidney, and gastrointestinal tissues: lack of observable toxicity and gross pathological lesions
[2]; single intraperitoneal dose of 50 mg/kg, after 24 hours
  adverse effects (hunching, tachypnea, or abnormal ambulation): No adverse effects
[3]; C57Bl/6 mice, 50 mg/kg IP at 10 minutes and 24 hours post-inoculation, 48 hours, P<0.05 Mann-Whitney
  S. Typhimurium colonization of spleen and liver (tissue CFU): reduced S. Typhimurium colonization in both tissues
[3]; female, C57Bl/6, mouse, in vivo, ip, 50 mg/kg, 48 h
  survival and condition of infected treated mice: survived in good condition out to 48 hours
[4]
  MIC: 130 µM and 49 µg/mL
[5]
  killing of mid-log phase S. aureus: bactericidal
[6]
  membrane fluidity: rapidly increases membrane fluidity
